Results from US4472424A, “Esters of 2-thenoylmercaptopropionylglycine with substituted hydroxybenzenes, process for their preparation and pharmaceutical compositions containing same” (Sigma-Tau Industrie Farmaceutiche Riunite S.p.A., priority 1981, dated 1984).

Key:
[1] = test system: cough-inducing irritation; assay: Antitussive activity (citric acid aerosol induced cough); format: in vivo, guinea pig; settings: 200 mg/Kg orally, one hour before test; for Number of coughs after treatment: 10 minutes exposure to 10% citric acid aerosol; for % Inhibition of coughs: before vs. after treatment
Description: The cough-inducing irritation was studied in guinea pigs by exposing the experimental animals to an environment wherein a 10% citric acid solution was atomized by an aerosol device kept at a steady pressure with compressed air. The experimental animals were placed in a glass-walled chamber which was connected to an electrical recording apparatus suitable for counting coughs.
The period of exposure to the cough-inducing aerosol was 10 minutes. The experimental animals were subjected to a control test seven days before they were orally administered 200 mg/Kg of the compounds.

bronchial secretion = assay: Expectorant activity (bronchial secretion in anesthetized rabbits, Perry et al.); format: in vivo, rabbit; settings: 20 to 40 mg
Description: The tests were carried out on male rabbits, weighing 2-3 Kg, anesthetized with ethyl urethane, by following the method disclosed by Perry et al. (J. Pharm. Exp. Ther. 73, 65, 1941).
Each cannula was connected to a feeding device which delivered a steady flow-rate of pre-heated air (36°-38° C.) at constant humidity (80%). At the lower end of each cannula, a graduated cylinder was fitted, wherein the bronchial secretion was collected. All of the animals breathed spontaneously and consequently they self-regulated the air intake suitable for normal respiration. After an hour following cannula insertion, the animals were administered orally (by stomach tube) the compounds of general formula (I) dissolved in distilled water at doses comprised between 20 and 40 mg. Each dose of drug was administered to 5 animals. The control animals (8) were given water only. The amount of secretion was determined after 1, 2 and 4 hours from administration.

[2] = Mucolytic activity in vitro (thromboelastograph, Morandini et al.); parameters: species or system human; settings: 1 ml of a 10% solution of test compound
Description: The tests were carried out in vitro by using the method disclosed by Morandini et al. (Lotta contro 1a tubercolosi 47, n. 4, 1977). A thromboelastograph was used to follow the variations induced by the compounds of general formula (I) and acetylcysteine on the rheological properties of human sputum.

[3] = Acute toxicity (LD50, Weil method), e.p. administration in mouse; settings: in vivo, ip, Weil method N = 4 K = 4
Description: LD50 of the compounds of formula (I) assessed with the Weil method ("Tables for convenient calculation of median effective dose (LD50 or ED 50) and instructions in their use", Biometrics, 249-253, 1952), by e.p. administration in mouse is shown in Table 1.

[4] = 1 hour after oral administration
[5] = 2 hours after oral administration
[6] = 4 hours after oral administration

| SMILES | Number of coughs after treatment [1] [coughs] | % Inhibition of coughs [1] [%] | Percentage variations ± s.e. of bronchial secretion versus basal values (bronchial secretion; [4]) | Percentage variations ± s.e. of bronchial secretion versus basal values (bronchial secretion; [5]) | Percentage variations ± s.e. of bronchial secretion versus basal values (bronchial secretion; [6]) | Percentage drop ± s.e. of the tracing versus maximum peak (mucolytic activity index) ([2]; dilution 1/30) [%] | Percentage drop ± s.e. of the tracing versus maximum peak (mucolytic activity index) ([2]; dilution 1/60) [%] | LD50 [3] [mg/kg] |
| --- | --- | --- | --- | --- | --- | --- | --- | --- |
| CCOC(=O)c1ccccc1OC(=O)CNC(=O)C(C)SC(=O)c1cccs1 (centres unmarked) [(4), ethyl o-(2-thenoylmercaptopropionylglyciloxy) benzoate] | 30 | 52 | +0.8 ± 0.03% | +1.9 ± 0.06% | +3.0 ± 0.04% | 82 | 60 | 2150 |
| CC(=O)Nc1ccc(OC(=O)CNC(=O)C(C)SC(=O)c2cccs2)cc1 (centres unmarked) [(2), p-(2-thenoylmercaptopropionylglyciloxy) acetamido benzene] | 30 | 46 | +0.8 ± 0.03% | +1.2 ± 0.04% | +2.5 ± 0.07% | 86 | 65 | 1930 |
| CCCOC(=O)c1ccccc1OC(=O)CNC(=O)C(C)SC(=O)c1cccs1 (centres unmarked) [(5), propyl o-(2-thenoylmercaptopropionylglyciloxy) benzoate] | 28 | 49 | +0.9 ± 0.06% | +1.7 ± 0.05% | +3.2 ± 0.06% | 78 | 57 | 2080 |
| CC(=O)N[C@@H](CS)C(=O)O [Acetylcysteine, acetylcysteine, reference compound] |  |  |  |  |  | 75 | 22 |  |
| CCCOC(=O)c1ccc(OC(=O)CNC(=O)C(C)SC(=O)c2cccs2)cc1 (centres unmarked) [(1), propyl p-(2-thenoylmercaptopropionylglyciloxy) benzoate] | 39 | 37 | +0.9 ± 0.05% | +2.1 ± 0.01% | +3.8 ± 0.06% | 75 | 60 | 1580 |
| CCCCOC(=O)c1ccccc1OC(=O)CNC(=O)C(C)SC(=O)c1cccs1 (centres unmarked) [(6), butyl o-(2-thenoylmercaptopropionylglyciloxy) benzoate] | 25 | 49 | +0.5 ± 0.04% | +1.0 ± 0.06% | +1.9 ± 0.04% | 75 | 55 | 1800 |
| COC(=O)c1ccccc1OC(=O)CNC(=O)C(C)SC(=O)c1cccs1 (centres unmarked) [(3), methyl o-(2-thenoylmercaptopropionylglyciloxy) benzoate] | 31 | 49 | +0.3 ± 0.05% | +0.9 ± 0.05% | +1.4 ± 0.08% | 85 | 65 | 1780 |
